This note sets out measurements from ChEMBL document CHEMBL6103587, “Anti-tumor effects of artemisinin-based oligomers: From monomer to trimer as a novel drug-enhancing strategy” (Eur J Med Chem, 2025).

The test system of assay [1] is MCF7. The assay can be described thus: Antitumor activity against human MCF7 cells assessed as reduction in cell viability incubated for 72 hrs by CCK8 assay. It is filed as functional, cell-based. The note with it: MCF7, 72 h.
The subject of assay [2] is MCF7. The assay can be described thus: Induction of apoptosis in human MCF7 cells assessed as early apoptotic cells at 0.1 uM by Annexin V-FITC/PI staining based flow cytometric analysis (reference value: 5.75 %). It is filed as functional.
Assay [3] relates to MCF7. The assay can be described thus: Induction of apoptosis in human MCF7 cells assessed as late apoptotic cells at 0.1 uM by Annexin V-FITC/PI staining based flow cytometric analysis (reference value: 1.97 %). Type of assay: functional.
Assay [4] relates to MCF7. The assay can be described thus: Induction of apoptosis in human MCF7 cells assessed as increase in death ratio at 0.05 to 0.2 uM by Annexin V-FITC/PI staining based flow cytometric analysis. Type of assay: functional, cell-based. The following applies: dose 0.05-0.2 µM.
The subject of assay [5] is MCF7. The assay can be described thus: Induction of apoptosis in human MCF7 cells assessed as viable cells at 0.2 uM by Annexin V-FITC/PI staining based flow cytometric analysis (reference value: 92.01 %). Type of assay: functional. The following applies: read-out: Activity.
For assay [6], the system named is MCF7. The assay can be described thus: Induction of apoptosis in human MCF7 cells assessed as early apoptotic cells at 0.2 uM by Annexin V-FITC/PI staining based flow cytometric analysis (reference value: 5.75 %). Type of assay: functional.
The subject of assay [7] is MCF7. The assay can be described thus: Antitumor activity against human MCF7 cells assessed as […] at 0.05 to 0.2 uM incubated for 24 hrs by Hoechst 33342 staining based confocal microscopic analysis. It is filed as functional, cell-based. The note with it: dose 0.05-0.2 µM.
Assay [8] relates to MCF7. The assay can be described thus: Inhibition of colony formation in human MCF7 cells assessed as reduction in clone formation rate at 0.05 to 0.2 uM measured after 14 days by giemsa staining based dissection microscopic analysis. It is filed as functional, cell-based. The note with it: dose 0.05-0.2 µM, time 14.0 day.
Assay [9] concerns MCF7. The assay can be described thus: Induction of apoptosis in human MCF7 cells assessed as increase in caspase 3 level at 0.05 to 0.2 uM incubated for 48 hrs by Western blot analysis. It is filed as functional, cell-based. The following applies: dose 0.05-0.2 µM.
The test system of assay [10] is Mitochondrial membrane. The assay can be described thus: Induction of mitochondrial membrane potential loss in human MCF7 cells assessed as reduction in JC-1 aggregate formation at 0.05 to 0.2 uM incubated for 48 hrs by JC-1 staining based confocal microscopic analysis. The following applies: dose 0.05-0.2 µM. Type of assay: cell membranes.
The test system of assay [11] is MCF7. The assay can be described thus: Induction of ferroptosis in human MCF7 cells assessed as reduction in GPX4 expression at 0.05 to 0.2 uM incubated for 48 hrs by Western blot analysis. Type of assay: functional, cell-based. The note with it: dose 0.05-0.2 µM.
For assay [12], the system named is MCF7. The assay can be described thus: Induction of apoptosis in human MCF7 cells assessed as viable cells at 0.1 uM by Annexin V-FITC/PI staining based flow cytometric analysis (reference value: 92.01 %). It is filed as functional. The note with it: read-out: Activity.
The subject of assay [13] is MCF7. The assay can be described thus: Inhibition of colony formation in human MCF7 cells assessed as reduction in number of colonies measured after 14 days by giemsa staining based dissection microscopic analysis. Type of assay: functional, cell-based. The following applies: dose 0.05-0.2 µM, time 14.0 day.
Assay [14] relates to MCF7. The assay can be described thus: Induction of apoptosis in human MCF7 cells assessed as late apoptotic cells at 0.2 uM by Annexin V-FITC/PI staining based flow cytometric analysis (reference value: 1.97 %). Type of assay: functional.
Assay [15] concerns MCF7. The assay can be described thus: Induction of apoptosis in human MCF7 cells assessed as early apoptotic cells at 0.05 uM by Annexin V-FITC/PI staining based flow cytometric analysis (reference value: 5.75 %). Type of assay: functional.
Assay [16] concerns MCF7. The assay can be described thus: Induction of apoptosis in human MCF7 cells assessed as late apoptotic cells at 0.05 uM by Annexin V-FITC/PI staining based flow cytometric analysis (reference value: 1.97 %). Type of assay: functional.
In assay [17] the test system is MCF7. The assay can be described thus: Induction of apoptosis in human MCF7 cells assessed as viable cells at 0.05 uM by Annexin V-FITC/PI staining based flow cytometric analysis (reference value: 92.01 %). It is filed as functional. The following applies: read-out: Activity.
For assay [18], the system named is MCF7. The assay can be described thus: Induction of apoptosis in human MCF7 cells assessed as necrotic cells at 0.1 uM by Annexin V-FITC/PI staining based flow cytometric analysis (reference value: 0.27 %). Type of assay: functional.
The subject of assay [19] is MCF7. The assay can be described thus: Induction of apoptosis in human MCF7 cells assessed as necrotic cells at 0.05 uM by Annexin V-FITC/PI staining based flow cytometric analysis (reference value: 0.27 %). Type of assay: functional.
For assay [20], the system named is Mitochondrial membrane. The assay can be described thus: Induction of mitochondrial membrane potential loss in human MCF7 cells assessed as increase in JC-1 monomer level at 0.05 to 0.2 uM incubated for 48 hrs by JC-1 staining based confocal microscopic analysis. It is filed as cell membranes. The note with it: dose 0.05-0.2 µM.
For assay [21], the system named is MCF7. The assay can be described thus: Antitumor activity against human MCF7 cells assessed as decrease in nuclear volume at 0.05 to 0.2 uM incubated for 24 hrs by Hoechst 33342 staining based confocal microscopic analysis. Type of assay: functional, cell-based. The following applies: dose 0.05-0.2 µM.
Assay [22] deals with MCF7. The assay can be described thus: Induction of apoptosis in human MCF7 cells assessed as increase in Bax level at 0.05 to 0.2 uM incubated for 48 hrs by Western blot analysis. Type of assay: functional, cell-based. The following applies: dose 0.05-0.2 µM.
Assay [23] relates to MCF7. The assay can be described thus: Induction of apoptosis in human MCF7 cells assessed as necrotic cells at 0.2 uM by Annexin V-FITC/PI staining based flow cytometric analysis (reference value: 0.27 %). Type of assay: functional.
Assay [24] relates to MCF7. The assay can be described thus: Antitumor activity against human MCF7 cells assessed as decrease in number of viable cells at 0.05 to 0.2 uM incubated for 24 hrs by Hoechst 33342 staining based confocal microscopic analysis. It is filed as functional, cell-based. The note with it: dose 0.05-0.2 µM.

The structures appear in SMILES notation. Calls of active or inactive are those of the source. No cut-off for these calls is given here.

For `Nc1ccn([C@@H]2O[C@H](CO)[C@@H](O)C2(F)F)c(=O)n1` [GEMCITABINE], the IC50 in the assay with MCF7 [1] was determined as 4.33 µM.

In the case of `C[C@H]1[C@@H](OCCN(CCO[C@H]2O[C@@H]3O[C@@]4(C)CC[C@H]5[C@H](C)CC[C@@H]([C@H]2C)[C@@]35OO4)CCO[C@H]2O[C@@H]3O[C@@]4(C)CC[C@H]5[C@H](C)CC[C@@H]([C@H]2C)[C@@]35OO4)O[C@@H]2O[C@@]3(C)CC[C@H]4[C@H](C)CC[C@@H]1[C@@]24OO3`, the Activity with MCF7 [2] is recorded as 14.22%; with MCF7 [3], 10.27%; in the assay with MCF7 [6] it was 16.86%; with Mitochondrial membrane [10] it was “Active; Partial Loss Of Membrane Potential Observed”; in the assay with MCF7 [14], 20.21%; in the assay on MCF7 [15], 13.23%. Besides, the Activity in the assay with MCF7 [16] is listed as 9.54%; with MCF7 [18], 1.14%; in the assay with MCF7 [19] it was 0.74%; with Mitochondrial membrane [20], “Active; Partial Loss Of Membrane Potential Observed”; in the assay with MCF7 [23] it was 0.48%. Further, the result with MCF7 [4], in the assay on MCF7 [7], with MCF7 [9], in the assay on MCF7 [11], in the assay with MCF7 [21] and with MCF7 [22] was Active. In the assay on MCF7 [24], the outcome was Active. Besides, the viability at 0.2 µM in the assay on MCF7 [5] was 62.5%. In addition, in the assay on MCF7 [8], the inhibition result is “Active”. Besides, in the assay with MCF7 [12], the viability at 0.1 µM amounted to 74.4%. For the same compound, in the assay on MCF7 [13], the inhibition result was “Dose-dependent-effect”. Also, the viability at 0.05 µM in the assay on MCF7 [17] stood at 76.5%. Further, the IC50 with MCF7 [1] worked out at 0.09 µM.

On to `C[C@H]1[C@@H](OCCNCCO[C@H]2O[C@@H]3O[C@@]4(C)CC[C@H]5[C@H](C)CC[C@@H]([C@H]2C)[C@@]35OO4)O[C@@H]2O[C@@]3(C)CC[C@H]4[C@H](C)CC[C@@H]1[C@@]24OO3`, for which, in the assay with MCF7 [1], the half-maximal inhibitory concentration (IC50) is 3.14 µM.

Turning to `C[C@H]1[C@@H](O)O[C@@H]2O[C@@]3(C)CC[C@H]4[C@H](C)CC[C@@H]1[C@@]24OO3` [ARTENIMOL], the half-maximal inhibitory concentration (IC50) in the assay on MCF7 [1] was > 10 µM.

For `C[C@H]1[C@@H](OCCN)O[C@@H]2O[C@@]3(C)CC[C@H]4[C@H](C)CC[C@@H]1[C@@]24OO3`, the half-inhibitory concentration (IC50) in the assay on MCF7 [1] was > 10 µM.
